According to ChEMBL document CHEMBL1201862, “PubChem BioAssay data set” (2004):
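The compound was tested at five concentrations on cells cultured in 96-well plates, with a 48-hour exposure period. GI50 marks 50% less growth.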 Active and inactive are the calls of the source. Cut-off read from the data, not from the text of the source: active = GI50 up to about 1.1 µM and inactive = higher. Residues, ends and D or L forms follow the SMILES beside them. *: point of attachment. Cbz = O=C(OCc1ccccc1)*

Assays:
Experiment in all cases: NCI tumour cell line growth inhibition, 48 h
A549 = tested on: A549
CCRF-CEM = tested on: CCRF-CEM
EKVX = tested on: EKVX
HCT-116 = tested on: HCT-116
HOP-62 = tested on: HOP-62
K562 = tested on: K562
KM12 = tested on: KM12
LOX IMVI = tested on: LOX IMVI
M14 = tested on: M14
MCF7 = tested on: MCF7
OVCAR-3 = tested on: OVCAR-3
OVCAR-8 = tested on: OVCAR-8
PC-3 = tested on: PC-3
SF-268 = tested on: SF-268
SF-295 = tested on: SF-295
SF-539 = tested on: SF-539
SK-MEL-2 = tested on: SK-MEL-2
SR = tested on: SR
UACC-257 = tested on: UACC-257
A498 = tested on: A498

Row | SMILES | GI50 (A549) | GI50 (CCRF-CEM) | GI50 (EKVX) | GI50 (HCT-116) | GI50 (HOP-62) | GI50 (K562) | GI50 (KM12) | GI50 (LOX IMVI) | GI50 (M14) | GI50 (MCF7) | GI50 (OVCAR-3) | GI50 (OVCAR-8) | GI50 (PC-3) | GI50 (SF-268) | GI50 (SF-295) | GI50 (SF-539) | GI50 (SK-MEL-2) | GI50 (SR) | GI50 (UACC-257) | GI50 (A498)
1 | Oc1c(N2CCCCC2)cc(-c2cc(N3CCCCC3)c(O)c3ccccc23)c2ccccc12 | 39.3 µM (inactive) | 30.2 µM (inactive) | > 100 µM (inactive) | 19 µM (inactive) | 32.1 µM (inactive) | 71.9 µM (inactive) | 64.1 µM (inactive) | 25.1 µM (inactive) | 16.7 µM (inactive) | 22.9 µM (inactive) | 23.3 µM (inactive) | 33 µM (inactive) | 31.3 µM (inactive) | 26 µM (inactive) | 41.2 µM (inactive) | 33.2 µM (inactive) | 25.2 µM (inactive) | 0.368 µM (active) | 14.9 µM (inactive) | 
2 | NNC(=O)c1ccccc1NC(=O)/C(=C/c1ccccc1)NC(=O)c1ccccc1 | > 100 µM (inactive) | 43.6 µM (inactive) | > 100 µM (inactive) | 88.1 µM (inactive) | 49.1 µM (inactive) | > 100 µM (inactive) | 27.8 µM (inactive) | 68.1 µM (inactive) | 81.1 µM (inactive) | > 100 µM (inactive) | > 100 µM (inactive) | > 100 µM (inactive) | > 100 µM (inactive) | > 100 µM (inactive) | > 100 µM (inactive) | > 100 µM (inactive) | > 100 µM (inactive) |  | 71.6 µM (inactive) | > 100 µM (inactive)
3 | COc1ccc2oc(=O)c(-c3csc(C)n3)cc2c1 | > 100 µM (inactive) | > 100 µM (inactive) | 56.5 µM (inactive) | 58.3 µM (inactive) | 31 µM (inactive) | > 100 µM (inactive) | > 100 µM (inactive) | > 100 µM (inactive) | 75.2 µM (inactive) | > 100 µM (inactive) |  |  | > 100 µM (inactive) | 21.6 µM (inactive) | 18.6 µM (inactive) | 22.2 µM (inactive) | 41.4 µM (inactive) | > 100 µM (inactive) | > 100 µM (inactive) | 
4 | Cc1ccc(Nc2nc(N)nc3c2ncn3C2OC(CO)C(O)C2O)cc1 (stereo unspecified) | > 100 µM (inactive) | > 100 µM (inactive) | > 100 µM (inactive) | > 100 µM (inactive) | > 100 µM (inactive) | > 100 µM (inactive) | > 100 µM (inactive) | > 100 µM (inactive) | > 100 µM (inactive) | > 100 µM (inactive) | > 100 µM (inactive) | > 100 µM (inactive) | > 100 µM (inactive) |  | > 100 µM (inactive) | > 100 µM (inactive) | > 100 µM (inactive) |  | > 100 µM (inactive) | > 100 µM (inactive)
5 | CC(NC(=O)C(NC(=O)OCc1ccccc1)C(C)C)C(=O)NCC(=O)O (stereo not drawn) (Cbz-Val-Ala-Gly-OH; configuration not given here) | > 100 µM (inactive) |  | > 100 µM (inactive) | > 100 µM (inactive) | > 100 µM (inactive) | > 100 µM (inactive) | > 100 µM (inactive) |  | > 100 µM (inactive) | > 100 µM (inactive) | > 100 µM (inactive) | > 100 µM (inactive) | > 100 µM (inactive) | > 100 µM (inactive) | > 100 µM (inactive) | > 100 µM (inactive) | > 100 µM (inactive) | > 100 µM (inactive) | > 100 µM (inactive) | 
6 | N=C(N)c1ccc(/N=N/c2c(O)ccc3cc(O)ccc23)cc1 | > 100 µM (inactive) | > 100 µM (inactive) | > 100 µM (inactive) | > 100 µM (inactive) | > 100 µM (inactive) | > 100 µM (inactive) | > 100 µM (inactive) |  | > 100 µM (inactive) | > 100 µM (inactive) | > 100 µM (inactive) | > 100 µM (inactive) | > 100 µM (inactive) | > 100 µM (inactive) | > 100 µM (inactive) | > 100 µM (inactive) | > 100 µM (inactive) | 24.7 µM (inactive) | > 100 µM (inactive) | 
7 | Cc1nn(C(=O)c2ccc(Cl)cc2)c2c1C(c1cccc([N+](=O)[O-])c1)SC(=N)N2 (stereo unspecified) | > 10 µM (inactive) | > 10 µM (inactive) | > 10 µM (inactive) | > 10 µM (inactive) | > 10 µM (inactive) | > 10 µM (inactive) | > 10 µM (inactive) | > 10 µM (inactive) | > 10 µM (inactive) | > 10 µM (inactive) | > 10 µM (inactive) | > 10 µM (inactive) | > 10 µM (inactive) | > 10 µM (inactive) | > 10 µM (inactive) | > 10 µM (inactive) | > 10 µM (inactive) | > 10 µM (inactive) | > 10 µM (inactive) | 
8 | COc1ccc(/C=C2/CCS(=O)(=O)c3ccc(C)cc3C2=O)cc1OC | 25.9 µM (inactive) | 8.75 µM (inactive) | 13.7 µM (inactive) | 10.2 µM (inactive) | 28.9 µM (inactive) | 24.8 µM (inactive) | 11 µM (inactive) | 8.11 µM (inactive) | 17.2 µM (inactive) | 8.38 µM (inactive) | 28.1 µM (inactive) | 12.3 µM (inactive) | 15.8 µM (inactive) | 20.5 µM (inactive) | 14.7 µM (inactive) | 14.6 µM (inactive) | 20 µM (inactive) | 20.6 µM (inactive) | 11.9 µM (inactive) | 
9 | O=C1CCCC/C1=C\c1ccc(Br)cc1 | 22.4 µM (inactive) | 12.6 µM (inactive) | 24.8 µM (inactive) | 17.3 µM (inactive) | 20.7 µM (inactive) | 4.33 µM (inactive) | 2.42 µM (inactive) | 39.6 µM (inactive) | 12.4 µM (inactive) | 2.71 µM (inactive) | 20.7 µM (inactive) | 15.7 µM (inactive) | 97.7 µM (inactive) | 18.5 µM (inactive) | 21.1 µM (inactive) | 19.9 µM (inactive) | 22.6 µM (inactive) | 4.2 µM (inactive) | 26.8 µM (inactive) | 
10 | COC(=O)c1ccc2c(c1)S/C(=C/c1ccc3ccc4cccc5ccc1c3c45)S2 | 42 µM (inactive) | 34.5 µM (inactive) | > 100 µM (inactive) | 95.9 µM (inactive) | 37.1 µM (inactive) | 34.3 µM (inactive) | 24.4 µM (inactive) | > 100 µM (inactive) | 32.1 µM (inactive) | 33.3 µM (inactive) | 23.2 µM (inactive) | 31.6 µM (inactive) | 48.1 µM (inactive) | 32.1 µM (inactive) | 40.8 µM (inactive) | > 100 µM (inactive) | > 100 µM (inactive) |  | > 100 µM (inactive) | 31.6 µM (inactive)
11 | CCN(CC)CCNc1c(OC)cc(C)c2sc3ccccc3c(=O)c12 | 4.31 µM (inactive) |  | 16.8 µM (inactive) | 4.66 µM (inactive) | 10.8 µM (inactive) | 1.71 µM (inactive) | 5.41 µM (inactive) |  | 3.71 µM (inactive) | 4.44 µM (inactive) | 11.8 µM (inactive) | 7.82 µM (inactive) | 7.71 µM (inactive) | 11 µM (inactive) | 3.85 µM (inactive) | 10.6 µM (inactive) | 12.6 µM (inactive) | 3.15 µM (inactive) | 1.82 µM (inactive) | 
